Publication PMC11873939, “Target Identification with Live-Cell Photoaffinity Labeling and Mechanism of Action Elucidation of ARN23765, a Highly Potent CFTR Corrector” (Journal of Medicinal Chemistry, 2025)

Assays:
F508del-CFTR [1] = molecular target: T1, F508del-CFTR (Homo sapiens, UniProt P13569, DEL508-508); set-up: method as in PMID 32128418; conditions: bronchial epithelial cells from F508del-CFTR CF individuals; cited from earlier work
T1 construct: expressed in transfected cells

[2] = molecular target: T2, F508del-CFTR double mutants (K68I, N71I, R74A, F81A, A198Y, W361A, S364F) (Homo sapiens, UniProt P13569, DEL508-508/W361A); assay: Protein maturation assay (WB) of F508del-CFTR double mutants in transfected HEK293 cells; type: cell-based; conditions: F508del/W361A-CFTR; HEK293, 10 nM, 24 h
T2 construct: CFTR identification in pull-down studies and analysis of full-length CFTR in protein maturation assays; expressed in transfected cells; host or cells: HEK293 (transient, pCDNA3.1 constructs, JetPEI)
T2 sequence (P13569 with tags, fused parts or gaps W361A/DEL508-508): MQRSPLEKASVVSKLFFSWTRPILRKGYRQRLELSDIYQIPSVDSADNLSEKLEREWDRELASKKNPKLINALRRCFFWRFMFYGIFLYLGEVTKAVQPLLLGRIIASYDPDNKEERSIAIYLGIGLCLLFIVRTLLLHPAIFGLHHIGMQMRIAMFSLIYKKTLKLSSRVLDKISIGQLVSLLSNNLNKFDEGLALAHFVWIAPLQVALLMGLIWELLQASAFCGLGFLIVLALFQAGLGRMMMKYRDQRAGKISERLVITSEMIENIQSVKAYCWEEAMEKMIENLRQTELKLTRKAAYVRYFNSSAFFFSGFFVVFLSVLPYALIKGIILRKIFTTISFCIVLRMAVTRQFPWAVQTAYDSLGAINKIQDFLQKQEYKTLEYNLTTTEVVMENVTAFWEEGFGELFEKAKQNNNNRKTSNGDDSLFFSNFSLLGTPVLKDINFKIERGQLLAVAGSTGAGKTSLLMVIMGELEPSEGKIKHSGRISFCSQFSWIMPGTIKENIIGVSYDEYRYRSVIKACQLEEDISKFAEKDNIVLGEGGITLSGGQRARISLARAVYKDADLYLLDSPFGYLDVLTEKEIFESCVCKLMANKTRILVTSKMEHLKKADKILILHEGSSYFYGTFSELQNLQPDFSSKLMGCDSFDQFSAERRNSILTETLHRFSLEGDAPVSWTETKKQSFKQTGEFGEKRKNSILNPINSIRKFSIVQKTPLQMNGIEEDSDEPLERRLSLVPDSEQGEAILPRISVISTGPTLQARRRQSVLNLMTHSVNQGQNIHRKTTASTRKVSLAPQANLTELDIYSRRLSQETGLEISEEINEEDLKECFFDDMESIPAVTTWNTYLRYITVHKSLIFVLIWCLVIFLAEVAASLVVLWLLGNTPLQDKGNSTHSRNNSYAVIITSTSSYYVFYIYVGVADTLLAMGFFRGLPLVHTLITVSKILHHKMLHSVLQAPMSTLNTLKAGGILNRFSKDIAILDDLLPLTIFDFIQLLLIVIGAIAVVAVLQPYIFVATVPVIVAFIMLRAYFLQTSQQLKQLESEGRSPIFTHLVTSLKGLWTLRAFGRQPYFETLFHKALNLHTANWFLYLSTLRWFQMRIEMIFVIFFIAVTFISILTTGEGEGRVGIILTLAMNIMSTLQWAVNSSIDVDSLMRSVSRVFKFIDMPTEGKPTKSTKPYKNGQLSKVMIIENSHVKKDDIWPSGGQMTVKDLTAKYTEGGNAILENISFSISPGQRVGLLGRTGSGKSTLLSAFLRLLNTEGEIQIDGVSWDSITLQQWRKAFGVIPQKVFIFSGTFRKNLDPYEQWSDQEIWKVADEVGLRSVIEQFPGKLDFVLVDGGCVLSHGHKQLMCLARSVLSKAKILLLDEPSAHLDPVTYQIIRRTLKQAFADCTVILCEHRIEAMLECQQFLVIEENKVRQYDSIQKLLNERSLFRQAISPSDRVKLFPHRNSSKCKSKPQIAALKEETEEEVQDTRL
Description: (§1) To confirm in cells the above-predicted binding site for ARN23765, we introduced the investigated single-site mutations into the F508del-CFTR coding sequence. The rescue of double mutant proteins (F508del + new mutation) by ARN23765 was assessed with WB analysis of protein maturation and evaluation of channel activity (FLIPR assay)[40] in transfected HEK293 cells. Since correctors 3151 (type II)[16] and VX-445 (type III)[18] have been reported to bind to different CFTR sites, we used these compounds as controls. As expected, ARN23765-induced maturation of F508del-CFTR was not affected by the N71I substitution. […] Indeed, the corrector was no longer able to promote protein maturation (Figure 9A and S8A). […] The results of protein maturation analysis were mostly confirmed by functional data (Figure 9B and S8B), in which the channel activity of double-mutated proteins was evaluated in terms of the change in cell membrane potential change (FLIPR assay).
(§2) HEK293 cells were plated in 24-wells at around 80% of confluence and transfected with constructs coding for F508del-CFTR or mutants using JetPEI reagent (101000053, Polyplus Technology) following the manufacturer’s instructions. After 24 h, the correctors were added for a further 24 h. Correctors were used at the following concentrations: ARN23765 (10 nM), VX-445 (3 μM), and 3151 (10 μM). For binding site analysis experiments, the cells were kept either at 37 °C (Figure S8) or moved to 30 °C (Figure 9) during incubation with the selected correctors. VX-445 and corrector 3151 were mixed together as a control for maximal protein correction. DMSO (0.2%) was added to nontreated controls. After treatment, cells were lysed in RIPA buffer [50 mM tris-HCl pH 8, 150 mM NaCl, 1% NP40, 0.5% sodium deoxycolate, 0.1% SDS, 2.0 mM EDTA] and lysates were analyzed with WB, as described in the supplementary methods of the Supporting Information. […]
(§3) Site-directed mutagenesis
(§4) Desired mutations were introduced using the QuikChange II XL site-directed mutagenesis kit (200522,
(§5) Agilent Technologies) according to the manufacturer’s instructions. F508del-CFTR pCDNA3.1 was used
(§6) as a template for the synthesis of mutated constructs K68I/F508del-CFTR, N71I/F508del-CFTR,
(§7) S364F/F508del-CFTR. The introduction of the mutation and the whole CFTR sequence were checked by
(§8) Sanger sequencing. Mutants R1070W/F508del-CFTR and R170G-
(§9) CFTR were produced as previously described.4

[3] = molecular target: T3, F508del-CFTR double mutants (K68I, N71I, R74A, F81A, A198Y, W361A, S364F) (Homo sapiens, UniProt P13569, DEL508-508/K68I); assay: as above; type: cell-based; conditions: F508del/K68I-CFTR; HEK293, 10 nM, 24 h
T3 construct: CFTR identification in pull-down studies and analysis of full-length CFTR in protein maturation assays; expressed in transfected cells; host or cells: HEK293 (transient, pCDNA3.1 constructs, JetPEI)
T3 sequence (P13569 with tags, fused parts or gaps K68I/DEL508-508): as the sequence (P13569 with tags, fused parts or gaps W361A/DEL508-508) above, with K68I, A361W counted along it
Description: as §1, §2, §3, §4, §5, §6, §7, §8, §9

F508del-CFTR [4] = molecular target: T1, F508del-CFTR; assay: Live-cell photoaffinity labeling, streptavidin pull-down and CFTR Western blot; type: binding; conditions: F508del-CFTR CFBE41o- cells, 25-fold excess (25 μM) competitor 30 min before probe (1 μM)
Description: Wt-CFTR or F508del-CFTR CFBE41o- cells were plated at 2–2.5 × 10^6 cells/plate in 6 cm diameter dishes. The day after, sodium butyrate (5–2.5 mM) was added for 24 h; next, the medium was exchanged with fresh one supplemented with DMSO (0.25%) (276855, Sigma-Aldrich) or probe (1 μM). For competition experiments, a 25-fold excess of ARN23765 (25 μM) was added 30 min before probe’s addition. For the analysis of “corrected” F508del-CFTR, F508del-CFTR CFBE41o- cells were kept at 27 °C for 24 h before adding the probes. Probes were incubated with cells for 2 h, then the medium was removed, and plates were washed twice with phosphate buffer saline (PBS). Cells were placed on ice and irradiated for 5 min at a wavelength of 365 nm using a 100-W UV-lamp (95–0127–02 model B100-AP, Analytik Jena). Cells were harvested with trypsin (T4299, Sigma-Aldrich), washed with PBS (D8537, Sigma-Aldrich), and pellets were stored at −80 °C until used, centrifuged at 300 × g and washed twice with PBS (D8537, Sigma-Aldrich). Pellets from in-cell photoaffinity labeling with alkyne-probes (PAP_1 and PAP_2) were lysed in PBS plus protease inhibitor cocktail (78429, Thermo Scientific) by sonication. The suspension was centrifuged at 800 × g for 20 min at 4 °C to discard nuclei and cell debris. The total extracted proteins were quantified with the bicinchoninic acid (BCA) protein assay (23225, Thermo Scientific) and subjected to CuAAC before proceeding with pull-down. Pellets from in-cell photoaffinity labeling with desthio-biotinylated (DS-biot) probes (PAP_1 DS-biot, PAP_2 DS-biot, PAP_N1 DS-biot, PAP_N2 DS-biot) were lysed with a modified RIPA buffer [50 mM tris-HCl pH 8, 150 mM NaCl, 0.5% Triton-X100, 0.2% SDS, 1 mM ethylenediaminetetraacetic acid (EDTA)] supplemented with protease inhibitor cocktail and centrifuged at 10.000× g for 10 min. The protein content in the supernatant was quantified by BCA protein assay. Protein lysate (200 μg) was diluted to 800 μL and the Triton-X100 percentage was reduced to 0.2% before proceeding to pull-down.
High capacity streptavidin agarose (20359, Thermo Scientific) (25 μL) was added to PAP-labeled cell extracts for 1 h at room temperature under gentle rotation. The streptavidin beads were collected by centrifugation and washed four times with lysis buffer. Resin-bound proteins were eluted with 45 μL of 5 mM biotin (B4501, Sigma-Aldrich) for 30 min at room temperature and analyzed with Western blot for CFTR expression. Input samples (4 and 8 μg for wt-CFTR and F508del-CFTR CFBE41o-, respectively) were collected immediately before incubation with streptavidin resin. Input and pulled-down samples were analyzed with WB as described in the supplementary methods.

T1 sequence (P13569 with tags, fused parts or gaps DEL508-508): as the sequence (P13569 with tags, fused parts or gaps W361A/DEL508-508) above, with A361W counted along it

## CN(C(=O)c1cccc(-n2nc(C(F)(F)F)c3c2[C@@H](Oc2ccc(C(=O)O)cc2)CCC3)c1)c1ccc2c(c1)OC(F)(F)O2 [ARN23765]
F508del-CFTR [1]
  Potency in rescuing CFTR function: subnanomolar
[2]
  Effect of second mutation on corrector-induced maturation of F508del-CFTR: markedly reduced or abolished
[3]
  Effect of second mutation on corrector-induced rescue of F508del-CFTR: no appreciable change
F508del-CFTR [4]
  Competition: CFTR recovered in pull-down by PAP_1 DS-biot or PAP_2 DS-biot after preincubation with competitor: markedly reduced amount of the recovered protein
